Results reported in patent publication US9695155B2, “Herbicidal substituted pyrimidinyloxy benzene compounds” (E. I. DU PONT DE NEMOURS AND COMPANY, priority 2013, dated 2017).

Columns and labels:
pigweed [1] = test: Test A postemergence; assay type: in vivo, Amaranthus retroflexus; conditions: 0 to 100 scale, 0 no effect, 100 complete control
Procedure, shortened: (§1)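 Pre- and postemergence greenhouse screen. Soil: loam + sand. Spray carrier: solvent mixture, non-phytotoxic, with surfactant. Post timing at 1–2 leaves, height 2–10 cm. Readout: visual injury on a 0–100 scale roughly 10 days after application, untreated plants as reference.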

pigweed [2] = test: Test A preemergence; assay type: in vivo, Amaranthus retroflexus; conditions: for Plant response rating, Pigweed: 31 g ai/ha, 0 to 100 scale where 0 is no effect and 100 is complete control, visual, approximately 10 days; for Pigweed plant response rating (0 to 100 scale): 125 g ai/ha
Procedure, shortened: as §1

Italian ryegrass [3] = test: Test A preemergence; assay type: in vivo, Lolium multiflorum; conditions: for Plant response rating, Ryegrass, Italian: 31 g ai/ha, 0 to 100 scale where 0 is no effect and 100 is complete control, visual, approximately 10 days; for Ryegrass, Italian plant response rating (0 to 100 scale): 125 g ai/ha
Procedure, shortened: as §1

giant foxtail [4] = test: Test A preemergence; assay type: in vivo, Setaria faberii; conditions: for Plant response rating, Foxtail, Giant: 31 g ai/ha, 0 to 100 scale where 0 is no effect and 100 is complete control, visual, approximately 10 days; for Foxtail, Giant plant response rating (0 to 100 scale): 125 g ai/ha
Procedure, shortened: as §1

corn = test: Test A postemergence; assay type: in vivo, Zea mays; conditions: 0 to 100 scale, 0 no effect, 100 complete control
Procedure, shortened: as §1

ragweed [5] = test: Test A postemergence; assay type: in vivo, Ambrosia elatior; conditions: 0 to 100 scale, 0 no effect, 100 complete control
Procedure, shortened: as §1

Heteranthera limosa = test: Test B flooded paddy test; assay type: in vivo; conditions: Flood, 250 g ai/ha; 0 to 100 scale where 0 is no effect and 100 is complete control
Procedure, shortened: (§2)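 2-leaf stage plants; pots flooded to 3 cm, compound added to paddy water, depth maintained. Greenhouse 13–15 d. Visual rating vs untreated controls, 0 (no effect) to 100 (complete control); dash = no result.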

giant foxtail [6] = test: Test A postemergence; assay type: in vivo, Setaria faberii; conditions: 0 to 100 scale, 0 no effect, 100 complete control
Procedure, shortened: as §1

ragweed [7] = test: Test A preemergence; assay type: in vivo, Ambrosia elatior; conditions: for Plant response rating, Ragweed: 31 g ai/ha, 0 to 100 scale where 0 is no effect and 100 is complete control, visual, approximately 10 days; for Ragweed plant response rating (0 to 100 scale): 125 g ai/ha
Procedure, shortened: as §1

rice = test: Test B flooded paddy test; assay type: in vivo, Oryza sativa; conditions: Flood, 250 g ai/ha; 0 to 100 scale where 0 is no effect and 100 is complete control
Procedure, shortened: as §2

barnyardgrass [8] = test: Test B flooded paddy test; assay type: in vivo, Echinochloa crus-galli; conditions: Flood, 250 g ai/ha; 0 to 100 scale where 0 is no effect and 100 is complete control
Procedure, shortened: as §2

galium = test: Test A postemergence; assay type: in vivo, Galium aparine; conditions: 0 to 100 scale, 0 no effect, 100 complete control
Procedure, shortened: as §1

wheat = test: Test A postemergence; assay type: in vivo, Triticum aestivum; conditions: 0 to 100 scale, 0 no effect, 100 complete control
Procedure, shortened: as §1

sedge, umbrella = test: Test B flooded paddy test; assay type: in vivo, Cyperus difformis; conditions: Flood, 250 g ai/ha; 0 to 100 scale where 0 is no effect and 100 is complete control
Procedure, shortened: as §2

kochia [9] = test: Test A postemergence; assay type: in vivo, Kochia scoparia; conditions: 0 to 100 scale, 0 no effect, 100 complete control
Procedure, shortened: as §1

kochia [10] = test: Test A preemergence; assay type: in vivo, Kochia scoparia; conditions: for Plant response rating, Kochia: 31 g ai/ha, 0 to 100 scale where 0 is no effect and 100 is complete control, visual, approximately 10 days; for Kochia plant response rating (0 to 100 scale): 125 g ai/ha
Procedure, shortened: as §1

barnyardgrass [11] = test: Test A preemergence; assay type: in vivo, Echinochloa crus-galli; conditions: for Plant response rating, Barnyardgrass: 31 g ai/ha, 0 to 100 scale where 0 is no effect and 100 is complete control, visual, approximately 10 days; for Barnyardgrass plant response rating (0 to 100 scale, 0 is no effect, 100 is complete control): 125 g ai/ha
Procedure, shortened: as §1

barnyardgrass [12] = test: Test A postemergence; assay type: in vivo, Echinochloa crus-galli; conditions: 0 to 100 scale, 0 no effect, 100 complete control
Procedure, shortened: as §1

Italian ryegrass [13] = test: Test A postemergence; assay type: in vivo, Lolium multiflorum; conditions: 0 to 100 scale, 0 no effect, 100 complete control
Procedure, shortened: as §1

blackgrass = test: Test A postemergence; assay type: in vivo, Alopecurus myosuroides; conditions: 0 to 100 scale, 0 no effect, 100 complete control
Procedure, shortened: as §1

Row | Compound | Plant response rating, Pigweed (pigweed [1]; 31 g ai/ha) | Plant response rating, Pigweed (pigweed [1]; 125 g ai/ha) | Plant response rating, Pigweed (pigweed [2]) | Pigweed plant response rating (0 to 100 scale) (pigweed [2]) | Plant response rating, Ryegrass, Italian (Italian ryegrass [3]) | Ryegrass, Italian plant response rating (0 to 100 scale) (Italian ryegrass [3]) | Plant response rating, Foxtail, Giant (giant foxtail [4]) | Foxtail, Giant plant response rating (0 to 100 scale) (giant foxtail [4]) | Plant response rating, Corn (corn; 31 g ai/ha) | Plant response rating, Corn (corn; 125 g ai/ha) | Plant response rating, Ragweed (ragweed [5]; 31 g ai/ha) | Plant response rating, Ragweed (ragweed [5]; 125 g ai/ha) | Plant response rating, Ducksalad (Heteranthera limosa) | Plant response rating, Foxtail, Giant (giant foxtail [6]; 31 g ai/ha) | Plant response rating, Foxtail, Giant (giant foxtail [6]; 125 g ai/ha) | Plant response rating, Ragweed (ragweed [7]) | Ragweed plant response rating (0 to 100 scale) (ragweed [7]) | Plant response rating, Rice (rice) | Plant response rating, Barnyardgrass (barnyardgrass [8]) | Plant response rating, Galium (galium; 31 g ai/ha) | also measured
1 | Cc1cc(C(F)(F)F)nn1-c1ccccc1Oc1ncc(Cl)cn1 [Compound 266] | 0 | 0 | 0 | 0 | 0 | 0 | 0 | 0 | 0 | 0 | 0 | 0 | 0 | 0 | 0 | 0 | 0 | 0 | 0 | 0 | Plant response rating, Galium (galium; 125 g ai/ha): 0; Plant response rating, Wheat (wheat; 31 g ai/ha): 0; Plant response rating, Wheat (wheat; 125 g ai/ha): 0; Plant response rating, Sedge, Umbrella (sedge, umbrella): 0; Plant response rating, Kochia (kochia [9]; 31 g ai/ha): 0; Plant response rating, Kochia (kochia [9]; 125 g ai/ha): 0; Plant response rating, Kochia (kochia [10]): 0; Kochia plant response rating (0 to 100 scale) (kochia [10]): 0; Plant response rating, Barnyardgrass (barnyardgrass [11]): 0; Barnyardgrass plant response rating (0 to 100 scale, 0 is no effect, 100 is complete control) (barnyardgrass [11]): 0; Plant response rating, Barnyardgrass (barnyardgrass [12]; 31 g ai/ha): 0; Plant response rating, Barnyardgrass (barnyardgrass [12]; 125 g ai/ha): 0; Plant response rating, Ryegrass, Italian (Italian ryegrass [13]; 31 g ai/ha): 0; Plant response rating, Ryegrass, Italian (Italian ryegrass [13]; 125 g ai/ha): 0; Plant response rating, Blackgrass (blackgrass; 31 g ai/ha): 0; Plant response rating, Blackgrass (blackgrass; 125 g ai/ha): 0
2 | N#Cc1cnn(-c2c(CF)cccc2Oc2ncc(Br)cn2)c1 [Compound 243] | 10 | 20 | 0 | 80 | 0 | 0 | 0 | 100 | 0 | 0 | 20 | 20 | 30 | 0 | 10 | 0 | 20 | 0 | 0 | 0 | Plant response rating, Galium (galium; 125 g ai/ha): 10; Plant response rating, Wheat (wheat; 31 g ai/ha): 0; Plant response rating, Wheat (wheat; 125 g ai/ha): 20; Plant response rating, Sedge, Umbrella (sedge, umbrella): 0; Plant response rating, Kochia (kochia [9]; 31 g ai/ha): 20; Plant response rating, Kochia (kochia [9]; 125 g ai/ha): 30; Plant response rating, Kochia (kochia [10]): 0; Kochia plant response rating (0 to 100 scale) (kochia [10]): 90; Plant response rating, Barnyardgrass (barnyardgrass [11]): 0; Barnyardgrass plant response rating (0 to 100 scale, 0 is no effect, 100 is complete control) (barnyardgrass [11]): 30; Plant response rating, Barnyardgrass (barnyardgrass [12]; 31 g ai/ha): 0; Plant response rating, Barnyardgrass (barnyardgrass [12]; 125 g ai/ha): 0; Plant response rating, Ryegrass, Italian (Italian ryegrass [13]; 31 g ai/ha): 0; Plant response rating, Ryegrass, Italian (Italian ryegrass [13]; 125 g ai/ha): 0; Plant response rating, Blackgrass (blackgrass; 31 g ai/ha): 0; Plant response rating, Blackgrass (blackgrass; 125 g ai/ha): 30
3 | Cc1cn(-c2c(C#N)cccc2Oc2ncc(Cl)cn2)cn1 [Compound 260] | 50 | 60 | 0 | 30 | 0 | 0 | 0 | 0 | 0 | 10 | 30 | 40 | 0 | 0 | 0 | 0 | 0 | 0 | 0 | 50 | Plant response rating, Galium (galium; 125 g ai/ha): 60; Plant response rating, Wheat (wheat; 31 g ai/ha): 0; Plant response rating, Wheat (wheat; 125 g ai/ha): 0; Plant response rating, Sedge, Umbrella (sedge, umbrella): 0; Plant response rating, Kochia (kochia [9]; 31 g ai/ha): 50; Plant response rating, Kochia (kochia [9]; 125 g ai/ha): 60; Plant response rating, Kochia (kochia [10]): 0; Kochia plant response rating (0 to 100 scale) (kochia [10]): 0; Plant response rating, Barnyardgrass (barnyardgrass [11]): 0; Barnyardgrass plant response rating (0 to 100 scale, 0 is no effect, 100 is complete control) (barnyardgrass [11]): 0; Plant response rating, Barnyardgrass (barnyardgrass [12]; 31 g ai/ha): 0; Plant response rating, Barnyardgrass (barnyardgrass [12]; 125 g ai/ha): 0; Plant response rating, Ryegrass, Italian (Italian ryegrass [13]; 31 g ai/ha): 0; Plant response rating, Ryegrass, Italian (Italian ryegrass [13]; 125 g ai/ha): 0; Plant response rating, Blackgrass (blackgrass; 31 g ai/ha): 0; Plant response rating, Blackgrass (blackgrass; 125 g ai/ha): 0
4 | FCc1cccc(Oc2ncc(Br)cn2)c1-n1cc(Cl)cn1 [Compound 251] | 60 | 70 | 70 | 90 | 0 | 0 | 50 | 80 | 0 | 20 | 10 | 20 | 75 | 30 | 60 | 0 | 30 | 0 | 0 | 20 | Plant response rating, Galium (galium; 125 g ai/ha): 30; Plant response rating, Wheat (wheat; 31 g ai/ha): 0; Plant response rating, Wheat (wheat; 125 g ai/ha): 0; Plant response rating, Sedge, Umbrella (sedge, umbrella): 40; Plant response rating, Kochia (kochia [9]; 31 g ai/ha): 40; Plant response rating, Kochia (kochia [9]; 125 g ai/ha): 60; Plant response rating, Kochia (kochia [10]): 10; Kochia plant response rating (0 to 100 scale) (kochia [10]): 70; Plant response rating, Barnyardgrass (barnyardgrass [11]): 30; Barnyardgrass plant response rating (0 to 100 scale, 0 is no effect, 100 is complete control) (barnyardgrass [11]): 50; Plant response rating, Barnyardgrass (barnyardgrass [12]; 31 g ai/ha): 10; Plant response rating, Barnyardgrass (barnyardgrass [12]; 125 g ai/ha): 30; Plant response rating, Ryegrass, Italian (Italian ryegrass [13]; 31 g ai/ha): 0; Plant response rating, Ryegrass, Italian (Italian ryegrass [13]; 125 g ai/ha): 10; Plant response rating, Blackgrass (blackgrass; 31 g ai/ha): 50; Plant response rating, Blackgrass (blackgrass; 125 g ai/ha): 70
